# According to patent US10864212B2, “Compositions and methods for treating retinal degradation” (University of Kentucky Research Foundation, priority 2013, dated 2020):
# “Also recorded” adds a separate entry of the source.
# What was measured:
# rat P2X7 receptor = target: T1, rat P2X7 receptor (Rattus norvegicus, UniProt Q64663); assay: Patch clamp analysis of P2X7 cation channel function, HEK293 stable cell line expressing rat P2X7 receptor; format: cell-based
# T1 construct: expressed in transfected cells
# T1 sequence (Q64663 1-595): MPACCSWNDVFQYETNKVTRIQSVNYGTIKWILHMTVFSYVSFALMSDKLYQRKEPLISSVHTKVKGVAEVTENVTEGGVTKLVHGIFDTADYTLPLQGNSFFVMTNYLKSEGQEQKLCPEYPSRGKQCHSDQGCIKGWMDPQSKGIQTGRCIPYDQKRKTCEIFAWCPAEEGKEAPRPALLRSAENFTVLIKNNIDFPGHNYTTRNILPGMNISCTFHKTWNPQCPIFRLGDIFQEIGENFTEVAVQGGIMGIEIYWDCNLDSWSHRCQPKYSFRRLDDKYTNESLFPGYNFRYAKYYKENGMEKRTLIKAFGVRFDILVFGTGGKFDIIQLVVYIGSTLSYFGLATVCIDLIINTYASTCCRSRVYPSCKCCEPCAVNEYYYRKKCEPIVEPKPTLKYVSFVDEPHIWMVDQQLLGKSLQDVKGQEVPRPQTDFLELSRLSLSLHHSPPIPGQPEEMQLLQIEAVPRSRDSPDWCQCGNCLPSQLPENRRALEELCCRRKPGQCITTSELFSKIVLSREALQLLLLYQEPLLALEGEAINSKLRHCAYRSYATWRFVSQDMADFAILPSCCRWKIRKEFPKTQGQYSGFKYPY
# Alu RNA = assay: Northern blot of Alu RNA levels in primary human RPE cells; format: cell-based
# From the text: FIG. 4 provides another example of the results of Northern blotting using an Alu-specific probe.
# FIG. 45 is a Northern blot of biotin-UTP-labeled Alu RNA-transfected primary human RPE cells.
# As presented in FIG. 3, primary human RPE cells treated with antisense oligonucleotides targeting DICER1 (Dcr as) (lane 3 (third lane from left)) show increased Alu RNA levels in the nuclear compartment compared to control antisense oligonucleotides (Ctr as) (lane 1 (leftmost)), monitored by Northern blotting using an Alu-specific probe.
# For example, primary human RPE cells may be transfected with Alu RNA, with or without d4T. […] U6 (bottom row) is shown as loading control for nuclear fraction in FIG. 4.
# And FIG. 45 presents a Northern blot of biotin-UTP-labeled Alu RNA-transfected primary human RPE cells.
smiles,measurement,setting,value
"Cc1cn([C@H]2C=C[C@@H](CO)O2)c(=O)[nH]c1=O [d4T, 2′3′ dideoxythymidine]",P2X7 cation channel function (patch clamp),rat P2X7 receptor,did not significantly modulate P2X7 cation channel function
same,Alu RNA levels (normalized to u6 RNA),"Alu RNA; biotin-UTP-labeled Alu RNA-transfected primary human RPE cells, FIG. 45",without reducing Alu RNA levels; also recorded: did not reduce Alu RNA levels
same,Alu RNA levels in nuclear fraction,"Alu RNA; human RPE cells transfected with Alu RNA, 1, 4, or 24 hours after transfection, FIG. 4",does not change Alu RNA levels
same,Alu RNA levels in nuclear compartment,"Alu RNA; primary human RPE cells treated with antisense oligonucleotides targeting DICER1, FIG. 3",does not reduce Alu RNA levels
